We go through 21 compounds from patent US20080249131A1, “NON-NUCLEOSIDE REVERSE TRANSCRIPTASE INHIBITORS” (priority 2002, published 2008).

Experiment [1] deals with human immunodeficiency virus type 1 (HIV-1). As to the kind of experiment: Inhibitory activity against HIV (EC50), cell-based luciferase reporter assay. From the text:
[…]. Experimental procedures were essentially as described by Connor et al. in Journal of Virology (1996), 70: 5306-5311 (Characterization of the functional properties of env genes from long-term survivors of human immunodeficiency virus type 1 infection), and Popik et al. in Journal of Virology (2002), 76: 4709-4722 (Human immunodeficiency virus type 1 uses lipid raft-colocalized CD4 and chemokine receptors for productive entry into CD4^+ T cells). It should be particularly appreciated that the virus contains two introduced mutations in the RT gene (K103N and Y181C, created by PCR mutagenesis) that render the virus highly resistant to current non-nucleoside HIV-1 drugs. Virus stocks were generated by cotransfection of plasmid DNA encoding VSV-G with vector pNL4-3Env(−)Luc(+) into 293T cells. Sixty-four hours after transfection, virus-containing medium was collected by centrifugation and stored frozen at −80° C.
HeLa cells were infected with the VSV-G pseudotyped virus in the presence of screening compounds in a 384-well microtiter plate format. Forty-eight hours after initial infection, lysis buffer and Luciferase Assay Reagent (Promega) was added to the cells and luciferase activity was determined by counting the resultant luminescence using a LJL luminometer. Since the luciferase gene is carried in the virus genome, its expression level directly reflects the virus replication level in the presence of a compound.
To evaluate the activity of the compounds against wild type HIV-1, the HeLa-JC53 cell line that expresses high levels of CD4 and CCR5 (see e.g., Platt et al. in Journal of Virology (1998), 72: 2855-2864: Effect of CCR5 and CD4 cell surface concentrations on infection by macrophagetropic isolates of human immunodeficiency virus type 1) was modified by isolation of a stable cell line that expresses luciferase under the control of the HIV-1 promoter (long terminal repeat, i.e., LTR). HIV-1 infection of this cell line stimulates the transcription of luciferase from the HIV-1 promoter and the luciferase gene expression level is proportional to the level of virus replication (Harrington et al. in Journal of Virology Methods (2000), 88: 111-115: Direct detection of infection of HIV-1 in blood using a centrifugation-indicator cell assay; and Roos et al. in Virology (2000), 273: 307-315: LuSIV cells: a reporter cell line for the detection and quantitation of a single cycle of HIV and SIV replication). Procedures for virus infection, compound testing and luciferase activity determination were the same as for the VSV-G pseudotyped HIV-1.
(A reporter such as luciferase makes a cellular process visible.)

The target of a further experiment is T1, wild-type HIV RT (Human immunodeficiency virus type 1 group M subtype B, UniProt P03366).
T1 construct: IC50 is indicated in microM for wild-type HIV RT
As to the kind of experiment: IC50 for wild-type HIV RT. Format: biochemical.

[2] abbreviates: Table 1, inhibitory activity against HIV, read-out: EC50.

Each structure is given as a SMILES string. Read-outs that look alike come from different tables or passages of the source.

Consider `Cc1nnc(SCC(=O)Nc2ccccc2C(F)(F)F)n1-c1ccccc1Cl` [compound 23], for which the half-maximal effective concentration (EC50) (in general, the concentration at which the effect is half-maximal) in experiment [1] (setting [2]) is > 100 µM. On the same count and under the same terms, the figure for `O=C(CSc1nnc(-c2ccncc2)n1-c1ccccc1)Nc1ccccc1I` [compound 24] is > 100 µM. `O=C(CSc1nnc(-c2ccc(Cl)cc2)n1-c1ccccc1)Nc1ccccn1` [compound 25]: the EC50 in experiment [1] (setting [2]) was > 100 µM. `Cc1ccccc1NC(=O)CSc1nnc(-c2ccc(Cl)cc2)[nH]1` [compound 26]: the concentration giving a half-maximal response (EC50) in experiment [1] (setting [2]) is 10 to 100 µM. Consider `Cn1c(SCC(=O)Nc2ccccc2)nnc1-c1ccc(Br)cc1` [compound 27], for which, in experiment [1] (setting [2]), the EC50 was > 100 µM.

Regarding `Cc1ccc(NC(=O)CSc2nnc(Cc3ccccc3)n2C)c(Br)c1` [compound 29], the EC50 in experiment [1] (setting [2]) is > 100 µM. Moreover, the IC50 (commonly the midpoint of a concentration-inhibition curve) on wild-type HIV RT (Table 1) lay in the range of 10 to 100 µM. Regarding `Cc1ccc(NC(=O)CSc2nnc(C)n2-c2ccccc2)cc1C` [compound 30], the EC50 in experiment [1] (setting [2]) is > 100 µM. As to `Cc1ccc(NCc2nnc(SCC(=O)Nc3ccc(C)cc3Br)n2-c2ccccc2)cc1` [compound 33], in experiment [1] (Human immunodeficiency virus 1), the EC50 is > 100 µM. Besides, at wild-type HIV RT (Table 1), the 50% inhibitory concentration (IC50) lay in the range of 10 to 100 µM. Turning to `O=C(CSc1nnc(C2CCCCC2)n1-c1ccccc1)Nc1ccccc1Br` [compound 34], the EC50 in experiment [1] (Human immunodeficiency virus 1) is > 100 µM. Moreover, the IC50 against wild-type HIV RT (Table 1) was in the range of 10 to 100 µM.

As to `Cc1ccc(-n2c(SCC(=O)Nc3ccc(C)cc3Br)nnc2-c2ccncc2)cc1` [compound 36], the EC50 in experiment [1] (setting [2]) was > 100 µM.

Take `Cc1ccc(-c2nnc(SCC(=O)Nc3ccccc3Br)n2C)cc1` [compound 37]: in experiment [1] (setting [2]), the EC50 is > 100 µM. Turning to `Cc1ccc(-n2c(C)nnc2SCC(=O)Nc2ccc(C)c(Cl)c2)cc1` [compound 39], the EC50 in experiment [1] (setting [2]) was > 100 µM. As for `Cc1cccc(NC(=O)CSc2nnc(C)n2-c2ccccc2)c1` [compound 40], the half-maximal effective concentration (EC50) in experiment [1] (setting [2]) was > 100 µM. Further, the IC50 on wild-type HIV RT (Table 1) lay within 10 to 100 µM. For the compound `CC(=O)c1ccc(NC(=O)CSc2nnc(C)n2-c2ccc(C)cc2)cc1` [compound 41], in experiment [1] (Human immunodeficiency virus 1), the EC50 was > 100 µM. Moreover, the IC50 against wild-type HIV RT (Table 1) lay within 10 to 100 µM. With `Cc1ccc(NC(=O)CSc2nnc(COc3ccc(C#N)cc3)n2-c2ccccc2)c(Br)c1` [compound 44], the concentration giving a half-maximal response (EC50) in experiment [1] (Human immunodeficiency virus 1) was > 100 µM. The IC50 on wild-type HIV RT (Table 1) was in the range of 10 to 100 µM. With `Cc1ccc(NC(=O)C(C)Sc2nnc(C)n2-c2ccc(C)cc2)cc1` (stereo not drawn) [compound 45], the EC50 in experiment [1] (setting [2]) is > 100 µM. Besides, at wild-type HIV RT (Table 1, numeric value), the IC50 stood at 36.3 µM. In the case of `Cc1ccc(NC(=O)CSc2nnc(-c3ccncc3)n2-c2ccccc2Cl)c(Br)c1` [compound 46], the concentration for a half-maximal effect (EC50) in experiment [1] (Human immunodeficiency virus 1) was > 100 µM. The 50% inhibitory concentration (IC50) at wild-type HIV RT (Table 1) is > 100 µM. `Cc1ccc(NC(=O)CSc2nnc(C)n2-c2ccccc2)cc1` [compound 47]: the EC50 in experiment [1] (setting [2]) is > 100 µM. Same read-out and setting: the same measure for `Cc1nnc(SCC(=O)Nc2ccccc2)n1-c1ccccc1` [compound 49]: > 100 µM. Take `Cc1cc(C)c(NC(=O)CSc2nnc(C)n2-c2ccccc2)c(C)c1` [compound 51]: the EC50 in experiment [1] (setting [2]) is > 100 µM. On to `Cc1ccc(NC(=O)CSc2nnc(-c3ccccc3C)n2-c2ccccc2)c(Br)c1` [compound 52], for which the 50% effective concentration (EC50) in experiment [1] (Human immunodeficiency virus 1) is > 100 µM. The compound further gave an IC50 against wild-type HIV RT (Table 1) of 10 to 100 µM.
